We go through 13 compounds from patent US7544691B2, “Guanidine derivatives” (Actelion Pharmaceuticals, Ltd., priority 2004, dated 2009).

What is called IC50 is the concentration that gives 50% inhibition.

The assay concerns the target T1, NPFF1 receptor (Homo sapiens, UniProt Q9GZQ6).
T1 construct: expressed in transfected cells; host or cells: Chinese Hamster Ovary cells, CHOSP10 (membranes)
Kind of assay: NPFF receptor binding test (displacement of 125I-Tyr1-NPFF from CHOSP10 cell membranes). The following applies: membranes of CHOSP10 cells producing NPFF1 receptor; 0.2 nM 125I-Tyr1-NPFF; 90 minutes at room temperature. Here is the method: Compounds of Formula I were examined in the following test for their affinity to the NPFF receptors: Hamster cells suitable for neuropeptide FF receptor-binding studies (Chinese Hamster Ovary cells, CHOSP10) which in each case produce the NPFF1 or NPFF2 receptor, were multiplied in standard cell-culture conditions. The cell-culture medium was sucked out and 5 ml of buffer A (5 mM Tris pH=7.4, 1 mM MgCl2) added per 17 cm Petri dish. The cells were scraped off the cell-culture plate and transferred into a 50 ml Falcon vessel. The cells were then centrifuged for 5 minutes at 450 g, resuspended in buffer A once again and mixed for 30 seconds on a Polytron Vortexer. After centrifugation at 30,000 g for 20 minutes the supernatant was discarded and the membrane pellet taken up in 500 μl buffer C (75 mM Tris pH=7.4, 25 mM MgCl2, 250 mM sucrose, 0.1 mM PMSF, 0.1 mM phenanthroline). The membrane-buffer mixture was then divided into aliquots and deep-frozen. The protein content of an aliquot was determined by the Lowry method. The binding test was carried out in a final volume of 250 μl. 100 μl membrane-buffer mixture corresponding to 35 μg protein content was mixed with 95 μl binding buffer (50 mM Tris pH 7.4, 60 mM NaCl, 0.1% protease-free BSA, 0.01% NaN3). After addition of 5 μl of a concentration of test substance per measurement point in each case, 0.2 nM ^125I-Tyr1-NPFF (NEN, NEX381) per measurement point was added in 50 μl. After 90 minutes' incubation at room temperature the samples were sucked out through a GF/C filter (Millipore ([…]60)) and the filter was washed with ice cold binding buffer with 3 times 300 μl (Packard Filtermate). After addition of 55 μl Microscint 40 (Packard 6013641) scintillation fluid the measurement points were quantified in the gamma counter (Packard, Top Count NXT). Non-specific binding was ascertained in the presence of 1 μM unmarked neuropeptide FF. Specific binding is defined as the difference between total and non-specific binding. IC50 values are defined as that concentration of the antagonist which displaces 50% of the ^125I-marked neuropeptide FF. This concentration is ascertained by linear regression analysis after logit/log-transformation of the binding values.

T1 sequence (Q9GZQ6 whole entry): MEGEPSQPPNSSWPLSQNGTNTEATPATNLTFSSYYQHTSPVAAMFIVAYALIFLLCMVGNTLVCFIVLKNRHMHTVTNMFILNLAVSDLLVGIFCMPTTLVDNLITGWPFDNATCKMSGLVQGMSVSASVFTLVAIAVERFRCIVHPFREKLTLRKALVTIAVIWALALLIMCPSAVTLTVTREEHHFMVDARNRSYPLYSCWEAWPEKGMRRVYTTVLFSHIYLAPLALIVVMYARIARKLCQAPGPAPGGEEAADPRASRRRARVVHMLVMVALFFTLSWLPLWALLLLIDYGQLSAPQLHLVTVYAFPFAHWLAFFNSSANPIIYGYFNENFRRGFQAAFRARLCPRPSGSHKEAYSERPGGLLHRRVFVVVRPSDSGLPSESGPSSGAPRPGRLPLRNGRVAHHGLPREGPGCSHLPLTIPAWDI

In turn, `Cc1nc(NC(=N)N)nc2c1C(C)CCC2` (racemic) [N-(4,5-dimethyl-5,6,7,8-tetrahydro-quinazolin-2-yl)-guanidine] had an IC50 of 7 nM.
Under `Cc1nc(NC(=N)N)nc2c1CC(C)CC2` (racemic) [N-(4,6-dimethyl-5,6,7,8-tetrahydro-quinazolin-2-yl)-guanidine] stands 48 nM; under `Cc1nc(NC(=N)N)nc2c1CCCCCC2` (racemic) [N-(4-methyl-5,6,7,8,9,10-hexahydro-cyclooctapyrimidin-2-yl)-guanidine], 60 nM; under `Cc1nc(NC(=N)N)nc2c1CCCC2` (racemic) [N-(4-methyl-5,6,7,8-tetrahydro-quinazolin-2-yl)-guanidine], 4 nM.
The value for `Cc1nc(NC(=N)N)nc2c1CCCCC2` (racemic) [N-(4-methyl-6,7,8,9-tetrahydro-5H-cycloheptapyrimidin-2-yl)-guanidine] was 54 nM.
The value for `Cc1nc(NC(=N)N)nc2c1CC(c1ccccc1)CC2` (racemic) [N-(4-methyl-6-phenyl-5,6,7,8-tetrahydro-quinazolin-2-yl)-guanidine] was 16 nM; that for `CCCC1CCc2nc(NC(=N)N)nc(C)c2C1` (racemic) [N-(4-methyl-6-propyl-5,6,7,8-tetrahydro-quinazolin-2-yl)-guanidine] was 1 nM; that for `Cc1nc(NC(=N)N)nc2c1CCCC2c1ccccc1` (racemic) [N-(4-methyl-8-phenyl-5,6,7,8-tetrahydro-quinazolin-2-yl)-guanidine] was 16 nM.
The compound `Cc1nc(NC(=N)N)nc2c1CC(C(C)C)CC2` (racemic) [N-(6-isopropyl-4-methyl-5,6,7,8-tetrahydro-quinazolin-2-yl)-guanidine] had an IC50 of 2 nM.
The value for `Cc1nc(NC(=N)N)nc2c1CC(C(C)(C)C)CC2` (racemic) [N-(6-tert-butyl-4-methyl-5,6,7,8-tetrahydro-quinazolin-2-yl)-guanidine] was 8 nM.
Compound `CCC(C)C1CCCc2c(C)nc(NC(=N)N)nc21` (racemic) [N-(8-sec-butyl-4-methyl-5,6,7,8-tetrahydro-quinazolin-2-yl)-guanidine] displayed an IC50 of 73 nM.
Under `Cc1nc(NC(=N)N)nc2c1CCCC2C(C)(C)C` (racemic) [N-(8-tert-butyl-4-methyl-5,6,7,8-tetrahydro-quinazolin-2-yl)-guanidine] stands 39 nM.
Under `CCC(C)(C)C1CCc2nc(NC(=N)N)nc(C)c2C1` (racemic) [N-[6-(1,1-dimethyl-propyl)-4-methyl-5,6,7,8-tetrahydro-quinazolin-2-yl]-guanidine] stands 19 nM.
